In patent publication US20050037989A1, “Inhibition of gene function by delivery of polynucleotide-based gene expression inhibitors to mammalian cells in vivo” (priority 2001, published 2005):
d = 2'-deoxy (DNA); r = 2'-OH (RNA)

Columns and labels:
Luc+ expression [1] = assay: Dual luciferase (pGL3 control + pRL-SV40) co-injected with siRNA, increased-pressure tail vein injection, organs assayed; type: in vivo, mice; conditions: one day; for inhibition of target Luc+ expression (Luc+/Renilla Luc ratio): liver, normalized to no siRNA control
Procedure: Inhibition of Luciferase expression by siRNA is gene specific in liver in vivo. Two plasmids were injected simultaneously either with or without siRNA-luc+ as described in Example 1. The first plasmid, pGL3 control (Promega Corp, Madison, Wis.), contains the luc+ coding region and a chimeric intron under transcriptional control of the simian virus 40 enhancer and early promoter region. The second, pRL-SV40, contains the coding region for the Renilla reniformis luciferase under transcriptional control of the Simian virus 40 enhancer and early promoter region.
10 μg pGL3 control and 1 μg pRL-SV40 was injected as described in Example 1 with 0, 0.5 or 5.0 μg siRNA-luc+. One day after injection, the livers were harvested and homogenized as described in Example 1. Luc+ and Renilla Luc activities were assayed using the Dual Luciferase Reporter Assay System (Promega).
Inhibition of Luciferase expression by siRNA is gene specific and siRNA specific in liver in vivo. 10 μg pGL3 control and 1 μg pRL-SV40 were injected as described in Example 1 with either 5.0 μg siRNA-luc+ or 5.0 control siRNA-ori. One day after injection, the livers were harvested and homogenized as described in Example 1. Luc+ and Renilla Luc activities were assayed using the Dual Luciferase Reporter Assay System (Promega). Ratios of Luc+ to Renilla Luc were normalized to the siRNA-ori control. siRNA-Luc+ inhibited Luc+ expression in liver by 93% compared to siRNA-ori indicating inhibition by siRNAs is sequence specific in this organ.
In vivo delivery of siRNA by increased-pressure intravascular injection results in strong inhibition of target gene expression in a variety of organs. 10 μg pGL3 Control and 1 μg pRL-SV40 were co-injected with 5 μg siRNA-Luc+ or 5 μg control siRNA (siRNA-ori) targeted to sequence in the plasmid backbone as in example 1. One day after injection, organs were harvested and homogenized and the extracts assayed for target firefly luciferase+ activity and control Renilla luciferase activity. Firefly luciferase+activity was normalized to that Renilla luciferase activity in order to compensate for differences in transfection efficiency between animals.

Luc+ expression [2] = assay: Dual luciferase in liver after bile duct delivery of plasmids and siRNA; type: in vivo, mice; conditions: 5.0 μg siRNA, bile duct injection, one day, compared to control siRNA-ori
Procedure: Inhibition of Luciferase expression by siRNA is gene specific and siRNA specific in liver after bile duct delivery in vivo. 10 μg pGL3 control and 1 μg pRL-SV40 with 5.0 μg siRNA-luc+ or 5.0 siRNA-ori were injected into the bile duct of mice. A total volume of 1 ml in Ringer's buffer was delivered at 6 ml/min. […] One day after injection, the liver was harvested and homogenized as described in Example 1. Luc+ and Renilla Luc activities were assayed using the Dual Luciferase Reporter Assay System (Promega). Ratios of Luc+ to Renilla Luc were normalized to the siRNA-ori control. siRNA-Luc+ inhibited Luc+ expression in liver by 88% compared to the control siRNA-ori.

Luc+ expression [3] = assay: Dual luciferase in muscle after iliac artery delivery of plasmids and siRNA; type: in vivo, rats; conditions: 5.0 μg siRNA, four days, compared to control siRNA-ori
Procedure: Inhibition of Luciferase expression by siRNA is gene specific and siRNA specific in muscle in vivo after arterial delivery. 10 μg pGL3 control and 1 μg pRL-SV40 with 5.0 μg siRNA-luc+ or 5.0 siRNA-ori were injected into iliac artery of rats under increased pressure. Specifically, animals were anesthetized and the surgical field shaved and prepped with an antiseptic. The animals were placed on a heating pad to prevent loss of body heat during the surgical procedure. A midline abdominal incision will be made after which skin flaps were folded away and held with clamps to expose the target area. A moist gauze was applied to prevent excessive drying of internal organs. Intestines were moved to visualize the iliac veins and arteries. Microvessel clips were placed on the external iliac, caudal epigastric, internal iliac, deferent duct, and gluteal arteries and veins to block both outflow and inflow of the blood to the leg. An efflux enhancer solution (e.g., 0.5 mg papaverine in 3 ml saline) was injected into the external iliac artery though a 25 g needle, followed by the plasmid DNA and siRNA containing solution (in 10 ml saline) 1-10 minutes later. The solution was injected in approximately 10 seconds. The microvessel clips were removed 2 minutes after the injection and bleeding was controlled with pressure and gel foam. The abdominal muscles and skin were closed with 4-0 dexon suture. […]

Luc+ expression [4] = assay: In vivo delivery of siRNA to mouse liver cells using TransIT In Vivo, dual luciferase; parameters: species or system ICR mice; conditions: for % inhibition of Luc+ expression: normalized to no siRNA control
Procedure: In vivo delivery of siRNA to mouse liver cells using TransIT™ In Vivo. 10 μg pGL3 control and 1 μg pRL-SV40 were complexed with 11 μl TransIT™ In Vivo in 2.5 ml total volume according the manufacturer's recommendation (Mirus Corporation, Madison, Wis.). For siRNA delivery, 10 μg pGL3 control, 1 μg pRL-SV40, and either 5 μg siRNA-Luc+ or 5 μg control siRNA were complexed with 16 μl TransIT™ In vivo in 2.5 ml total volume. Particles were injected over ˜7 s into the tail vein of 25-30 g ICR mice as described in Example 1. One day after injection, the livers were harvested and homogenized as described in Example 1. Luc+ and Renilla Luc activities were assayed using the Dual Luciferase Reporter Assay System (Promega).

[5] = Example 4: 5 μg siRNA, compared to control siRNA-ori
[6] = 5 μg siRNA with TransIT In Vivo, liver, one day

## siRNA-luc+: annealed oligomers SEQ ID 4 and SEQ ID 5 containing luc+ coding sequence, positions 155-173 of the luc+ reading frame (chain 1 CUUACGCUGAGUACUUCGATT; chain 2 UCGAAGUACUCAGCGUAAGTT; sugars from the 5' end r19 d2, backbone not given here; listed as Photinus pyralis)
Luc+ expression [1]; 0.5 μg co-injected siRNA
  inhibition of target Luc+ expression (Luc+/Renilla Luc ratio): 73%
Luc+ expression [1]; 5.0 μg co-injected siRNA
  inhibition of target Luc+ expression (Luc+/Renilla Luc ratio): 82%
Luc+ expression [1]; Example 3: 5.0 μg siRNA, compared to siRNA-ori
  inhibition of Luc+ expression in liver: 93%
Luc+ expression [1]; [5]
  inhibition of firefly luciferase+ activity, heart: 74%
  inhibition of firefly luciferase+ activity, kidney: 87%
  inhibition of firefly luciferase+ activity, liver: 95%
  inhibition of firefly luciferase+ activity, lung: 81%
  inhibition of firefly luciferase+ activity, pancreas: 92%
  inhibition of firefly luciferase+ activity, spleen: 77%
Luc+ expression [2]
  inhibition of Luc+ expression in liver: 88%
Luc+ expression [3]
  inhibition of Luc+ expression in gastrocnemius: 92%
  inhibition of Luc+ expression in quadriceps: 85%
Luc+ expression [4]; [6]
  Luciferase expression (RLUs): 853332 RLUs
  Renilla expression (RLUs): 4124726 RLUs
Luc+ expression [4]; 5 μg siRNA with TransIT In Vivo
  % inhibition of Luc+ expression: 96%
Luc+ expression [4]; 5 μg siRNA with TransIT In Vivo, listed as siRNA-Luc+
  % inhibition of Luc+ expression: 96.0%
Luc+ expression [4]; Luc+ to Renilla Luc ratio, liver, one day
  relative LUC+ expression: 0.2069
